Measurements published in ChEMBL document CHEMBL4219043, “Beyond the Rule of 5: Lessons Learned from AbbVie's Drugs and Compound Collection” (J Med Chem, 2018).
pEC50, pKi: −log10 of the molar value. Converted amounts (≈) assume the structure as drawn. Blank lines part the entries; values can stand above or below the molecule they belong to.

Assays:
Hepatitis C virus [1] = assay: Ratio of EC50 in presence of 40% human plasma to EC50 in absence of human plasma for HCV genotype 1a H77 infected in human HuH7 replicon cells; type: functional, Hepacivirus hominis
Hepatitis C virus [2] = assay: Resistance index, ratio of EC50 for HCV genotype 1a H77 harboring NS3 D168V mutant infected in human HuH7 replicon cells to EC50 for HCV genotype 1a H77 harboring wild type NS3 infected in human HuH7 replicon cells; type: functional, Hepacivirus hominis
Hepatitis C virus [3] = assay: Resistance index, ratio of EC50 for HCV genotype 1b Con1 harboring NS3 D168V mutant infected in human HuH7 replicon cells to EC50 for HCV genotype 1b Con1 harboring wild type NS3 infected in human HuH7 replicon cells; type: functional, Hepacivirus hominis, isolate Con1
[4] = Half life in po dosed rat by LC-MS/MS analysis; type: ADME, organism-based; details: in vivo
Hepatitis C virus [5] = assay: Antiviral activity against HCV genotype 1a H77 infected in human HuH7 replicon cells after 3 days in absence of human plasma by luciferase reporter gene assay; type: functional, organism-based, Hepacivirus hominis; details: genotype 1a H77, Huh-7, 72 h
Canis familiaris [6] = assay: Oral bioavailability in dog at 3 mg/kg by LC-MS/MS analysis; type: ADME, organism-based, Canis lupus familiaris; details: in vivo
Rattus norvegicus = assay: Dose normalized AUC in po dosed rat after 24 hrs by LC-MS/MS analysis; type: ADME, organism-based; details: in vivo
Hepatitis C virus [7] = assay: Resistance index, ratio of EC50 for HCV genotype 1a H77 harboring NS3 R155K mutant infected in human HuH7 replicon cells to EC50 for HCV genotype 1a H77 harboring wild type NS3 infected in human HuH7 replicon cells; type: functional, Hepacivirus hominis
[8] = Oral bioavailability in rat by LC-MS/MS analysis; type: ADME, organism-based; details: in vivo
Hepatitis C virus [9] = assay: Antiviral activity against HCV genotype 1a H77 harboring NS3 D168V mutant infected in human HuH7 replicon cells after 3 days by luciferase reporter gene assay; type: functional, organism-based, Hepacivirus hominis; details: genotype 1a H77, Huh-7, 72 h
[10] = Apparent permeability of the compound in human Caco2 cells; type: ADME, cell-based; details: Caco-2
[11] = Half life in iv dosed rat by LC-MS/MS analysis; type: ADME, organism-based; details: in vivo
[12] = Plasma clearance in iv dosed rat by LC-MS/MS analysis; type: ADME, organism-based
Hepatitis C virus [13] = assay: Antiviral activity against HCV genotype 1b Con1 infected in human HuH7 replicon cells after 3 days in absence of human plasma by luciferase reporter gene assay; type: functional, organism-based, Hepacivirus hominis; details: isolate Con1, Huh-7, 72 h
Hepatitis C virus [14] = assay: Antiviral activity against HCV genotype 1b Con1 harboring NS3 R155K mutant infected in human HuH7 replicon cells after 3 days by luciferase reporter gene assay; type: functional, organism-based, Hepacivirus hominis; details: isolate Con1, Huh-7, 72 h
Hepatitis C virus [15] = assay: Antiviral activity against HCV genotype 1a H77 harboring NS3 R155K mutant infected in human HuH7 replicon cells after 3 days by luciferase reporter gene assay; type: functional, organism-based, Hepacivirus hominis; details: genotype 1a H77, Huh-7, 72 h
[16] = Solubility in pH 7.2 buffer; type: physicochemical
Canis familiaris [17] = assay: Dose normalized AUC in dog at 3 mg/kg, po after 24 hrs by LC-MS/MS analysis; type: ADME, organism-based, Canis lupus familiaris; details: in vivo
[18] = Half life in dog at 3 mg/kg, po by LC-MS/MS analysis; type: ADME, organism-based, Canis lupus familiaris; details: in vivo
Canis familiaris [19] = assay: Fraction of drug absorbed into portal vein in dog at 3 mg/kg, po by LC-MS/MS analysis; type: ADME, organism-based, Canis lupus familiaris; details: in vivo
Hepatitis C virus [20] = assay: Resistance index, ratio of EC50 for HCV genotype 1b Con1 harboring NS3 R155K mutant infected in human HuH7 replicon cells to EC50 for HCV genotype 1b Con1 harboring wild type NS3 infected in human HuH7 replicon cells; type: functional, Hepacivirus hominis, isolate Con1
[21] = Half life in dog at 1 mg/kg, iv by LC-MS/MS analysis; type: ADME, organism-based, Canis lupus familiaris; details: in vivo
Hepatitis C virus [22] = assay: Antiviral activity against HCV genotype 1b Con1 harboring NS3 D168V mutant infected in human HuH7 replicon cells after 3 days by luciferase reporter gene assay; type: functional, organism-based, Hepacivirus hominis; details: isolate Con1, Huh-7, 72 h
Hepatitis C virus [23] = assay: Antiviral activity against HCV genotype 1a H77 infected in human HuH7 replicon cells after 3 days in presence of 40% human plasma by luciferase reporter gene assay; type: functional, organism-based, Hepacivirus hominis; details: genotype 1a H77, Huh-7, 72 h
Hepatitis C virus [24] = assay: Antiviral activity against HCV genotype 1b Con1 infected in human HuH7 replicon cells after 3 days in presence of 40% human plasma by luciferase reporter gene assay; type: functional, organism-based, Hepacivirus hominis; details: isolate Con1, Huh-7, 72 h
[25] = Plasma clearance in dog at 1 mg/kg, iv by LC-MS/MS analysis; type: ADME, organism-based, Canis lupus familiaris
MOLT-4 = assay: Antiproliferative activity against human MOLT4 cells in presence of 10% human serum; type: functional, cell-based
[26] = target: Apoptosis regulator Bcl-2 (Homo sapiens, UniProt P10415); assay: Inhibition of Bcl2 (unknown origin)
RS4-11 = assay: Antiproliferative activity against human RS4:11 cells in presence of 10% human serum; type: functional, cell-based
[27] = Oral bioavailability in dog; type: ADME, organism-based, Canis lupus familiaris; details: in vivo

Apoptosis regulator Bcl-2, sequence (P10415 whole entry): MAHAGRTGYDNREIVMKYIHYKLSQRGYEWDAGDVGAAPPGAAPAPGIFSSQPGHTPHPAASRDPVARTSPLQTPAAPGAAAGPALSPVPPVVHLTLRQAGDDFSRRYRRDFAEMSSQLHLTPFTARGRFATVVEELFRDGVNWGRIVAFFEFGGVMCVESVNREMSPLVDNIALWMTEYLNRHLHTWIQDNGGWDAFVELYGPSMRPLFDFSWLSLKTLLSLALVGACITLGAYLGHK

Compound: Cc1cc(C(=O)N[C@H]2CCCCC/C=C\[C@@H]3C[C@@]3(C(=O)NS(=O)(=O)C3CC3)NC(=O)[C@@H]3C[C@@H](Oc4nc5ccccc5nc4C(F)(F)F)CN3C2=O)no1
- Ratio EC50 (Hepatitis C virus [1]): 6 - 35
- Ratio EC50 (Hepatitis C virus [2]): 290
- Ratio EC50 (Hepatitis C virus [3]): 6
- half-life [4]: 1.8 h
- pEC50 (Hepatitis C virus [5]): 9.30
- F (Canis familiaris [6]): 200%
- AUC/dose (Rattus norvegicus): 4.75 µg·h/mL
- Ratio EC50 (Hepatitis C virus [7]): 4
- bioavailability [8]: 99.5%
- pEC50 (Hepatitis C virus [9]): 7.48
- Papp [10]: 5.4 ×10⁻⁶ cm/s
- half-life [11]: 1.2 h
- clearance [12]: 3.5 mL/min/kg
- pEC50 (Hepatitis C virus [13]): 9.40
- pEC50 (Hepatitis C virus [14]): 9.15
- pEC50 (Hepatitis C virus [15]): 9.40
- Solubility [16]: 150 µM (≈ 116 µg/mL)
- AUC/dose (Canis familiaris [17]): 6.76 µg·h/mL
- half-life [18]: 1.5 h
- FaFg (Canis familiaris [19]): 1.5
- Ratio EC50 (Hepatitis C virus [20]): 2
- half-life [21]: 1 h
- pEC50 (Hepatitis C virus [22]): 8.70
- pEC50 (Hepatitis C virus [23]): 7.92
- pEC50 (Hepatitis C virus [24]): 8.00
- clearance [25]: 5.67 mL/min/kg

- pEC50 (MOLT-4): < 5.30
- pKi [26]: > 11.00
- pEC50 (RS4-11): 8.22
Compound: CO[C@H]1CC[C@H](CNc2ccc(S(=O)(=O)NC(=O)c3ccc(N4CCN(CC5=C(c6ccc(Cl)cc6)CC(C)(C)CC5)CC4)cc3Oc3cnc4[nH]ccc4c3)cc2[N+](=O)[O-])CC1 [A-1211212]

- bioavailability [27]: 48%
- pEC50 (MOLT-4): 6.52
- pEC50 (RS4-11): 6.95
Compound: CC1(C)CCC(c2ccc(Cl)cc2)=C(CN2CCN(c3ccc(C(=O)NS(=O)(=O)c4ccc(N[C@H](CCN5CCOCC5)CSc5ccccc5)c(S(=O)(=O)C(F)(F)F)c4)cc3)CC2)C1 [NAVITOCLAX]
